# Measured values reported in patent US6420367B1, “Pyrimidine derivatives exhibiting antitumor activity” (Shionogo & Co., Ltd., priority 1998, dated 2002).
# What was measured:
# [1] = test system: DT-R cells (pRRE3-luc-transfected v-ki-ras-transformed NIH3T3 cells); signal derived from Ras oncogene products; test: Inhibitory effect against cellular signaling derived from Ras oncogene products: luciferase reporter, dissociation of DT-R from DT-C activity (MAC); format: cell-based, mouse; conditions: minimal tested concentration at which luciferase activities of DT-C cells and DT-R cells dissociated
# Outline: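 Value is a minimal active concentration: lowest dose where Ras-responsive reporter (DT-R) luciferase diverges from SV40-minimal-promoter control (DT-C). Both transfected v-Ki-ras NIH3T3 lines received 3-fold serial dilutions for 24 h at 37 °C in 10% FCS medium before lysis and luminometry.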
# [2] = test system: human squamous lung cancer Ma44; test: In vitro cell growth inhibition test, MTT assay; format: cell-based; conditions: MTT assay 4 days after compound addition
# Outline: (§1)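 Panel of human carcinoma lines, including PANC-1, assessed in vitro; inhibition of cell growth quantified via MTT.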
# [3] = test system: human colon cancer HT29; test: In vitro cell growth inhibition test, MTT assay; format: cell-based; conditions: MTT assay 4 days after compound addition
# Outline: as §1
# [4] = test system: human lung adenocarcinoma A549; test: In vitro cell growth inhibition test, MTT assay; format: cell-based; conditions: MTT assay 4 days after compound addition
# Outline: as §1
# [5] = test system: human pancreas cancer PANC-1; test: In vitro cell growth inhibition test, MTT assay; format: cell-based; conditions: MTT assay 4 days after compound addition
# Outline: as §1
# [6] = test system: human squamous lung cancer RERF-RC-AI; test: In vitro cell growth inhibition test, MTT assay; format: cell-based; conditions: MTT assay 4 days after compound addition
# Outline: as §1
# [7] = test system: DT-C cells (pGV-P-transfected v-ki-ras-transformed NIH3T3 cells); test: Luciferase activity in control DT-C cells (IC50-C): non-specific transcription-inhibitory effect or cytotoxicity; format: cell-based, mouse; conditions: tested concentration nearest to 50% inhibition in DT-C cells, index of non-specific transcription inhibition or cytotoxicity
# Outline: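 Luciferase from an SV40 minimal promoter was read in DT-C cells (2500 cells/well) 24 h after compound addition at […] to 0.51 ng/ml in 3-fold steps. IC50-C is the tested concentration nearest 50% inhibition.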
Compound,MAC (Minimal Active Concentration) [1] [µg/mL],"IC50, Ma44 [2] [µg/mL]","IC50, HT29 [3] [µg/mL]","IC50, A549 [4] [µg/mL]","IC50, PANC-1 [5] [µg/mL]","IC50, RERF-LC-AI [6] [µg/mL]",IC50-C [7] [µg/mL],"IC50 ([2]; Homo sapiens, 96 h) [µg/mL]","IC50 ([3]; Homo sapiens, HT-29, 96 h) [µg/mL]","IC50 ([4]; Homo sapiens, A549, 96 h) [µg/mL]","IC50 ([5]; Homo sapiens, PANC-1, 96 h) [µg/mL]","IC50 ([6]; Homo sapiens, 96 h, read-out: IC50, RERF-LC-AI) [µg/mL]","IC50 ([7]; Mus musculus, NIH3T3) [µg/mL]",melting point [°C]
CCNC(=Nc1nc(C)ncc1CSc1nnc(-c2ccc([N+](=O)[O-])cc2)o1)NCC(F)(F)F [Compound A-175],0.0137,0.015,0.01,0.017,0.01,0.0053,3.33,,,,,,,
CCNC(=Nc1nc(C)ncc1CSc1nnc(-c2ccc(N)cc2)o1)NC(C)C [Compound A-182],0.0137,0.016,0.011,0.014,0.0073,0.0056,3.3,,,,,,,
CCNC(=Nc1nc(C)ncc1CSc1nnc(-c2ccc(N)cc2)o1)NCC.Cl.Cl [Compound A-186],0.0412,0.057,0.014,0.048,0.017,0.014,>10,,,,,,,
CCNC(=Nc1nc(C)ncc1CSc1nnc(-c2ccc([N+](=O)[O-])cc2)o1)NCC.Cl [Compound A-187],0.0137,0.017,0.013,0.025,0.014,0.012,>10,,,,,,,
CCNC(=Nc1nc(C)ncc1CSc1nnc(-c2ccc(N)nc2)o1)NCC [Compound D-6],0.370,0.32,0.039,0.33,0.085,0.037,>10,,,,,,,
CCNC(=Nc1nc(C)ncc1CSc1nnc(-c2ccsc2N)o1)NCC [Compound D-8],0.0412,0.036,0.03,0.027,0.013,0.012,>10,,,,,,,
CCNC(=Nc1ncncc1CSc1nnc(-c2ccncc2N)o1)NCC [Compound D-37],0.123,0.024,0.015,0.028,0.013,0.011,>10,,,,,,,
CCNC(=Nc1ncncc1CSc1nnc(-c2ccncc2)o1)NCC [Compound D-41],1.11,0.055,0.04,0.07,0.049,0.024,>10,,,,,,,
CCN/C(=N\c1nc(C)ncc1CSc1nnc(-c2ccc([N+](=O)[O-])cc2)o1)SC [Compound G-1],0.370,,,,,,,0.056,0.052,0.063,0.051,0.046,> 10,156 to 157
